For test [1], the system named is human acute myeloid leukemia MV4.11 cells. The test can be described thus: Cell proliferation-suppressing activity, fluorescence method (Alamar Blue assay). Type of test: cell-based. The note with it: 48 h, compound 1 μM, Alamar Blue assay two days after inoculation, Table 5. How it is done:
Measurement of Cell Proliferation-Suppressing Activity (Fluorescence Method)
Each compound was added to a 96-well microtiter plate at a final concentration of 1 μM, then human acute myeloid leukemia MV4.11 cells (10^4 cells) were inoculated, and the Alamar Blue assay was performed two days after the inoculation (measurement of fluorescence: Ex. 535 nm, Em. 590 nm) to measure cell proliferation-suppressing activity.

A further test concerns the target pim-1 kinase (Homo sapiens, UniProt P11309). The test can be described thus: Measurement of pim-1 kinase inhibitory activity (fluorescent substrate peptide, capillary electrophoresis). The class given is biochemical. The conditions noted are these: 0.1 μM of each compound, 30 μM ATP, 1.5 μM substrate peptide, room temperature 2 hours; Table 1. The procedure: Measurement of Pim-1 Kinase Inhibitory Activity
The result of the reaction was determined by quantifying the substrate and the phosphorylated reaction product separated by capillary electrophoresis based on difference in charges of the substances (EZ Reader II, Caliper Life Sciences, was used).

We go through six compounds from patent US9156827B2, “Anticancer agent” (THE UNIVERSITY OF TOKYO, priority 2010, dated 2015).

Where a name gives a salt, the structure may show the parent alone.

Chain of pim-1 kinase (P11309 whole entry): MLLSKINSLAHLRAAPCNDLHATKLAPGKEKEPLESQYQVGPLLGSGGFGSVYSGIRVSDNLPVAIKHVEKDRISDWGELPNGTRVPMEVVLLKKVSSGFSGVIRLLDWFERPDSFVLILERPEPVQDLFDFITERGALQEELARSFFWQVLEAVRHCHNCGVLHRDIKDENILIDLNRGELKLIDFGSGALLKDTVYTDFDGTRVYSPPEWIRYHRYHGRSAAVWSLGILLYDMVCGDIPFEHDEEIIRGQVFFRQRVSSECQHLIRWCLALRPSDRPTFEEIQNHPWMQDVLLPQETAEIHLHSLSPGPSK

As for `O=C1/C(=C/c2cn(S(=O)(=O)c3ccccc3Cl)c3ccccc23)Oc2c1ccc(O)c2CN1CCNCC1` [Compound A36, (Z)-2-{[1-(2-Chlorophenylsulfonyl)-1H-indol-3-yl]methylene}-6-hydroxy-7-(piperazin-1-ylmethyl)benzofuran-3(2H)-one dihydrochloride], the inhibition at 1 µM in test [1] was determined as 39%. The inhibition at 0.1 µM against pim-1 kinase was found to be 99%.
`O=C1/C(=C/c2cn(S(=O)(=O)c3c(Cl)cccc3Cl)c3ccccc23)Oc2c1ccc(O)c2CN1CCNCC1` [Compound A37, (Z)-2-{[1-(2,6-Dichlorophenylsulfonyl)-1H-indol-3-yl]methylene}-6-hydroxy-7-(piperazin-1-ylmethyl)benzofuran-3(2H)-one dihydrochloride]: in test [1], at 1 µM the inhibition was 55%. This compound also registered an inhibition at 0.1 µM against pim-1 kinase of 99%.
Turning to `O=C1/C(=C/c2cn(S(=O)(=O)c3cccc(Cl)c3Cl)c3ccccc23)Oc2c1ccc(O)c2CN1CCNCC1` [Compound A38, (Z)-2-{[1-(2,3-Dichlorophenylsulfonyl)-1H-indol-3-yl]methylene}-6-hydroxy-7-(piperazin-1-ylmethyl)benzofuran-3(2H)-one dihydrochloride], the inhibition at 1 µM in test [1] was 43%. At pim-1 kinase, this compound had an inhibition at 0.1 µM of 99%.
On the same counts, the results for `O=C1/C(=C/c2cn(S(=O)(=O)c3ccc(Cl)cc3Cl)c3ccccc23)Oc2c1ccc(O)c2CN1CCNCC1` [Compound A39, (Z)-2-{[1-(2,4-Dichlorophenylsulfonyl)-1H-indol-3-yl]methylene}-6-hydroxy-7-(piperazin-1-ylmethyl)benzofuran-3(2H)-one dihydrochloride] are 51% and 99%.
For the compound `O=C1/C(=C/c2c[nH]c3ncccc23)Oc2c1ccc(O)c2CN1CCOCC1` [Compound A44, (Z)-2-[(1H-Pyrrolo[2,3-b]pyridin-3-yl)methylene]-6-hydroxy-7-(morpholinomethyl)benzofuran-3(2H)-one], in test [1], testing at 1 µM gave an inhibition of 46%. Besides, the inhibition at 0.1 µM on pim-1 kinase was 27%.
For the compound `O=C1CN(Cc2c(O)ccc3c2O/C(=C\c2c[nH]c4ncccc24)C3=O)CCN1` [Compound A45, (Z)-4-({2-[(1H-Pyrrolo[2,3-b]pyridin-3-yl)methylene]-6-hydroxy-3-oxo-2,3-dihydrobenzofuran-7-yl}methyl)piperazin-2-one], the inhibition at 1 µM in test [1] was determined as 15%. This compound registered an inhibition at 0.1 µM at pim-1 kinase of 83%.
